Assay results taken from US10118947B2, “Modulation of structured polypeptide specificity” (BICYCLE THERAPEUTICS LIMITED, priority 2013, dated 2018).
Like-named read-outs stand apart in the source and are kept apart here. Numbered stars: 1 amine (or outer) side, 2 acyl side, 3 side chain; on linkers, the order of the positions; unused ones are H or OH. Bridge positions count the residues as written; N and C are the ends. Square brackets hold non-standard residues; d marks the D form. Peptide text beside a SMILES is read from it. Ala(2-furyl) = N[C@@H](Cc1ccco1)C(=O)O; TBMB = c1c(C[*:1])cc(C[*:3])cc1C[*:2]; X1 = O=C([C@H](Cn1cncn1)N[*:1])[*:2]; 2Pal = N[C@@H](Cc1ccccn1)C(=O)O; 3Pal = N[C@@H](Cc1cccnc1)C(=O)O; Chg = N[C@H](C(=O)O)C1CCCCC1; NMeS = CN[C@@H](CO)C(=O)O; Sar = CNCC(=O)O

Biological target: T1, human plasma Kallikrein (Homo sapiens, UniProt P03952)
T1 construct: purchased Stratech, UK
Assay: Functional enzyme inhibition assay with fluorogenic substrate Z-PheArg-AMC, human plasma Kallikrein
Type: biochemical
Settings: for F (Kivar/KiWT): ratio of Ki to wild type
Procedure: Functional enzyme assays were conducted in 10 mM Tris HCl, 150 mM NaCl, 10 mM MgCl2, 1 mM CaCl2) and 1 mg/mL BSA (all Sigma UK) pH7.4 at 25° C. in solid black 96 well plates. Briefly 26.5 pM human plasma Kallikrein (purchased from Stratech, UK) or 500 pM rat plasma Kallikrein (expressed and purified in house) were incubated in the absence or presence of increasing concentrations of test peptide for 15 minutes before addition of the fluorogenic substrate Z-PheArg-AMC (Enzo Lifesciences UK) to a final assay concentration of 100 μM in 4% DMSO. Release of AMC was measured using a Pherastar FS (BMG Labtech), excitation 360 nm, emission 460 nm. The rate of the linear phase of the reaction, typically 5 to 45 minutes, was calculated in MARS data analysis software (BMG labtech). The rate was then used to calculate the IC50 and Ki in Prism (GraphPad). A four parameter inhibition non-linear regression equation was used to calculate the IC50.
Peptides were dissolved as the TFA-salts in their powder form, and stock solutions were usually prepared in water. All solutions were centrifuged and filtered ([…] syringe filters) prior absorption measurement at 280 nm. […] For peptides containing non-natural amino acids with suspected chromophoric properties (i.e. NorHar, 4PhenylPro, 3Pal, 4Pal, Tic, 4GuanPhe, 4,4-BPAI, 3,3-DPA, 1NAI, 2NAI, 4BenzylPro, Ind) concentrations were determined by weighing the powder and dissolving the peptide in a defined quantity of water.

[1] = Table 3c, D-Alanine scan in Loop2, read-out: Ki
[2] = Table 24b, residue 7 modifications, read-out: Ki

T1 sequence (P03952 20-638): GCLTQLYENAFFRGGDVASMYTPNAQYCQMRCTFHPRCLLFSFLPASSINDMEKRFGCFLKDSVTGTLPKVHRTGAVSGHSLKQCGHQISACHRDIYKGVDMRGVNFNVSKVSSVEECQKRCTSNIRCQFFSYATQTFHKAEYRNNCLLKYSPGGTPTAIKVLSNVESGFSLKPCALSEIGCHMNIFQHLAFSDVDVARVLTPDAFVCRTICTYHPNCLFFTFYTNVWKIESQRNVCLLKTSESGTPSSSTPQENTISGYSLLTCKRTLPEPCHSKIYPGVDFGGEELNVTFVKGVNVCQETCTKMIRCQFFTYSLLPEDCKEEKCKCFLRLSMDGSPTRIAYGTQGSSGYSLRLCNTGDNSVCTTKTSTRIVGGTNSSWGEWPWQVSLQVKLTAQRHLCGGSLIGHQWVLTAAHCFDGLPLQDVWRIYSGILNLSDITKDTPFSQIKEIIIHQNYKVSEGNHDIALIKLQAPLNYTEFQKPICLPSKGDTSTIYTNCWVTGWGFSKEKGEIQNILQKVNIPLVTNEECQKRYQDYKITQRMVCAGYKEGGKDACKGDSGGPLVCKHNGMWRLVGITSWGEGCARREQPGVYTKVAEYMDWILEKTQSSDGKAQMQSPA

## CC(C)C[C@@H]1NC(=O)[C@H](CC(=O)O)NC(=O)[C@H](CCC(N)=O)NC(=O)[C@H](Cc2c[nH]cn2)NC(=O)[C@H](C)NC(=O)[C@@H]2CSCc3cc(cc(c3)CSC[C@@H](C(=O)N[C@@H](C)C(N)=O)NC1=O)CSC[C@H](NC(=O)[C@H](C)N)C(=O)N[C@@H](C)C(=O)N[C@@H](Cc1c[nH]c3ccccc13)C(=O)N1CCC[C@H]1C(=O)N[C@@H](C)C(=O)N[C@@H](CCCNC(=N)N)C(=O)N2 [06-34-03-Ala1,6] (H-ACAWPARCAHQDLCA-NH2; linker 2-8-14 via TBMB)
  potency / binding to kallikrein (in words): retained full potency compared to the parent

## CC(C)C[C@@H]1NC(=O)[C@H](CC(=O)O)NC(=O)[C@H](CCC(N)=O)NC(=O)[C@H](Cc2c[nH]cn2)NC(=O)CN(C)C(=O)[C@@H]2CSCc3cc(cc(c3)CSC[C@H](NC(=O)[C@H](C)N)C(=O)N(C)CC(=O)N[C@@H](Cc3c[nH]c4ccccc34)C(=O)N3CCC[C@H]3C(=O)N[C@@H](C)C(=O)N[C@@H](CCCNC(=N)N)C(=O)N2)CSC[C@@H](C(=O)N[C@@H](C)C(N)=O)NC1=O [06-34-03-N-MeGly1,6, ACN-MeGWPARC(N-MeG)HQDLCA] (H-AC[Sar]WPARC[Sar]HQDLCA-NH2; linker 2-8-14 via TBMB; N-terminus and C-terminus assumed)
  potency / binding to kallikrein (in words): reduction in potency

## CC(C)C[C@@H]1NC(=O)[C@H](CC(=O)O)NC(=O)[C@H](CCC(N)=O)NC(=O)[C@H](Cc2c[nH]cn2)NC(=O)[C@H](CC(C)C)NC(=O)[C@@H]2CSCc3cc(cc(c3)CSC[C@H](NC(=O)[C@H](C)N)C(=O)N(C)[C@@H](CO)C(=O)N[C@@H](Cc3c[nH]c4ccccc34)C(=O)N3CCC[C@H]3C(=O)N[C@@H](C)C(=O)N[C@@H](CCCNC(=N)N)C(=O)N2)CSC[C@@H](C(=O)N[C@@H](C)C(N)=O)NC1=O [06-34-18-N-MeSer1] (H-AC[NMeS]WPARCLHQDLCA-NH2; linker 2-8-14 via TBMB)
Ki human PK (nM), Table 6
  Ki: 0.56 nM

## CC(=O)N[C@H]1CSCc2cc3cc(c2)CSC[C@H](NC(=O)[C@H](CCCNC(=N)N)NC(=O)[C@H](C)NC(=O)[C@@H]2CCCN2C(=O)[C@H](Cc2c[nH]c4ccccc24)NC(=O)[C@H](CO)NC1=O)C(=O)N[C@@H](C1CCCCC1)C(=O)N[C@@H](Cc1c[nH]cn1)C(=O)N[C@@H](CCC(N)=O)C(=O)N[C@@H](CC(=O)O)C(=O)N[C@@H](CC(C)C)C(=O)N[C@H](C(N)=O)CSC3 [Ac-(06-34-18) Chg6] (Ac-CSWPARC[Chg]HQDLC-NH2; linker 1-7-13 via TBMB)
Table 24a, residue 6 modification in the context of Ac-(06-34-18), read-out: Ki (nM) Ac-(06-34-18)
  Ki: 0.13 nM

## CC(=O)N[C@H]1CSCc2cc3cc(c2)CSC[C@H](NC(=O)[C@H](CCCNC(=N)N)NC(=O)[C@@H](C)NC(=O)[C@@H]2CCCN2C(=O)[C@H](Cc2c[nH]c4ccccc24)NC(=O)[C@H](CO)NC1=O)C(=O)N[C@@H](CC(C)C)C(=O)N[C@@H](Cc1c[nH]cn1)C(=O)N[C@@H](CCC(N)=O)C(=O)N[C@@H](CC(=O)O)C(=O)N[C@@H](CC(C)C)C(=O)N[C@H](C(N)=O)CSC3 [Ac-(06-34-18) D-Ala4]
  reduction in potency/affinity compared to wildtype: 7000 fold

## CC(=O)N[C@H]1CSCc2cc3cc(c2)CSC[C@H](NC(=O)[C@H](CCCNC(=N)N)NC(=O)[C@H](C)NC(=O)[C@@H]2CCCN2C(=O)[C@H](Cc2c[nH]c4ccccc24)NC(=O)[C@H](CO)NC1=O)C(=O)N[C@H](C)C(=O)N[C@@H](Cc1c[nH]cn1)C(=O)N[C@@H](CCC(N)=O)C(=O)N[C@@H](CC(=O)O)C(=O)N[C@@H](CC(C)C)C(=O)N[C@H](C(N)=O)CSC3 [Ac-(06-34-18) D-Ala6] (Ac-CSWPARC[dA]HQDLC-NH2; linker 1-7-13 via TBMB)
[1]
  Ki: 1040 nM
Table 3c
  F (Kivar/KiWT): 2469

## CC(=O)N[C@H]1CSCc2cc3cc(c2)CSC[C@H](NC(=O)[C@H](CCCNC(=N)N)NC(=O)[C@H](C)NC(=O)[C@@H]2CCCN2C(=O)[C@H](Cc2c[nH]c4ccccc24)NC(=O)[C@H](CO)NC1=O)C(=O)N[C@@H](CC(C)C)C(=O)N[C@@H](Cc1c[nH]cn1)C(=O)N[C@H](C)C(=O)N[C@@H](CC(=O)O)C(=O)N[C@@H](CC(C)C)C(=O)N[C@H](C(N)=O)CSC3 [Ac-(06-34-18) D-Ala8] (Ac-CSWPARCLH[dA]DLC-NH2; linker 1-7-13 via TBMB)
[1]
  Ki: 11.7 nM
Table 3c
  F (Kivar/KiWT): 28

## CC(=O)N[C@H]1CSCc2cc3cc(c2)CSC[C@H](NC(=O)[C@H](CCCNC(=N)N)NC(=O)[C@H](C)NC(=O)[C@@H]2CCCN2C(=O)[C@H](Cc2c[nH]c4ccccc24)NC(=O)[C@H](CO)NC1=O)C(=O)N[C@@H](CC(C)C)C(=O)N[C@@H](Cc1c[nH]cn1)C(=O)N[C@@H](CCC(N)=O)C(=O)N[C@H](C)C(=O)N[C@@H](CC(C)C)C(=O)N[C@H](C(N)=O)CSC3 [Ac-(06-34-18) D-Ala9] (Ac-CSWPARCLHQ[dA]LC-NH2; linker 1-7-13 via TBMB)
[1]
  Ki: 0.87 nM
Table 3c
  F (Kivar/KiWT): 2

## CC(=O)N[C@H]1CSCc2cc3cc(c2)CSC[C@H](NC(=O)[C@@H](CCCNC(=N)N)NC(=O)[C@H](C)NC(=O)[C@@H]2CCCN2C(=O)[C@H](Cc2c[nH]c4ccccc24)NC(=O)[C@H](CO)NC1=O)C(=O)N[C@@H](CC(C)C)C(=O)N[C@@H](Cc1c[nH]cn1)C(=O)N[C@@H](CCC(N)=O)C(=O)N[C@@H](CC(=O)O)C(=O)N[C@@H](CC(C)C)C(=O)N[C@H](C(N)=O)CSC3 [Ac-(06-34-18) D-Arg5]
  reduction in potency/affinity compared to wildtype: 300 fold

## CC(=O)N[C@H]1CSCc2cc3cc(c2)CSC[C@H](NC(=O)[C@H](CCCNC(=N)N)NC(=O)[C@H](C)NC(=O)[C@@H]2CCCN2C(=O)[C@@H](Cc2c[nH]c4ccccc24)NC(=O)[C@H](CO)NC1=O)C(=O)N[C@@H](CC(C)C)C(=O)N[C@@H](Cc1c[nH]cn1)C(=O)N[C@@H](CCC(N)=O)C(=O)N[C@@H](CC(=O)O)C(=O)N[C@@H](CC(C)C)C(=O)N[C@H](C(N)=O)CSC3 [Ac-(06-34-18) D-Trp2]
  reduction in potency/affinity compared to wildtype: 45000 fold

## CC(=O)N[C@H]1CSCc2cc3cc(c2)CSC[C@H](NC(=O)[C@H](CCCNC(=N)N(C)C)NC(=O)[C@H](C)NC(=O)[C@@H]2CCCN2C(=O)[C@H](Cc2c[nH]c4ccccc24)NC(=O)[C@H](CO)NC1=O)C(=O)N[C@@H](CC(C)C)C(=O)N[C@@H](Cc1c[nH]cn1)C(=O)N[C@@H](CCC(N)=O)C(=O)N[C@@H](CC(=O)O)C(=O)N[C@@H](CC(C)C)C(=O)N[C@H](C(N)=O)CSC3 [Ac-(06-34-18) NDMA5]
Table 11, read-out: Ki (nM) (human kallikrein)
  Ki: 510 nM

## CC(=O)N[C@H]1CSCc2cc3cc(c2)CSC[C@H](NC(=O)[C@H](CCCNC(=N)N)NC(=O)[C@H](Cc2ccc(O)cc2)NC(=O)[C@@H]2CCCN2C(=O)[C@H](Cc2ccccc2)NC(=O)[C@H](CO)NC1=O)C(=O)N[C@@H](CC(C)C)C(=O)N[C@@H](Cn1cncn1)C(=O)N[C@@H](CCC(N)=O)C(=O)N[C@@H](CC(=O)O)C(=O)N[C@@H](CC(C)C)C(=O)N[C@H](C(N)=O)CSC3 [Ac-(06-34-18) Phe2 Tyr4 1,2,4-TriAz7] (Ac-CSFPYRCL[X1]QDLC-NH2; linker 1-7-13 via TBMB)
[2]
  Ki: 455 nM
Table 24b
  F (Kivar/KiWT): 1084

## CC(=O)N[C@H]1CSCc2cc3cc(c2)CSC[C@H](NC(=O)[C@H](CCCNC(=N)N)NC(=O)[C@H](Cc2ccc(O)cc2)NC(=O)[C@@H]2CCCN2C(=O)[C@H](Cc2ccccc2)NC(=O)[C@H](CO)NC1=O)C(=O)N[C@@H](CC(C)C)C(=O)N[C@@H](Cc1ccccn1)C(=O)N[C@@H](CCC(N)=O)C(=O)N[C@@H](CC(=O)O)C(=O)N[C@@H](CC(C)C)C(=O)N[C@H](C(N)=O)CSC3 [Ac-(06-34-18) Phe2 Tyr4 2Pal7] (Ac-CSFPYRCL[2Pal]QDLC-NH2; linker 1-7-13 via TBMB)
[2]
  Ki: 53 nM
Table 24b
  F (Kivar/KiWT): 126

## CC(=O)N[C@H]1CSCc2cc3cc(c2)CSC[C@H](NC(=O)[C@H](CCCNC(=N)N)NC(=O)[C@H](Cc2ccc(O)cc2)NC(=O)[C@@H]2CCCN2C(=O)[C@H](Cc2ccccc2)NC(=O)[C@H](CO)NC1=O)C(=O)N[C@@H](CC(C)C)C(=O)N[C@@H](Cc1cccnc1)C(=O)N[C@@H](CCC(N)=O)C(=O)N[C@@H](CC(=O)O)C(=O)N[C@@H](CC(C)C)C(=O)N[C@H](C(N)=O)CSC3 [Ac-(06-34-18) Phe2 Tyr4 3Pal7] (Ac-CSFPYRCL[3Pal]QDLC-NH2; linker 1-7-13 via TBMB)
[2]
  Ki: 130 nM
Table 24b
  F (Kivar/KiWT): 308

## CC(=O)N[C@H]1CSCc2cc3cc(c2)CSC[C@H](NC(=O)[C@H](CCCNC(=N)N)NC(=O)[C@H](Cc2ccc(O)cc2)NC(=O)[C@@H]2CCCN2C(=O)[C@H](Cc2ccccc2)NC(=O)[C@H](CO)NC1=O)C(=O)N[C@@H](CC(C)C)C(=O)N[C@@H](Cc1ccco1)C(=O)N[C@@H](CCC(N)=O)C(=O)N[C@@H](CC(=O)O)C(=O)N[C@@H](CC(C)C)C(=O)N[C@H](C(N)=O)CSC3 [Ac-(06-34-18) Phe2 Tyr4 4FuAla7] (Ac-CSFPYRCL[Ala(2-furyl)]QDLC-NH2; linker 1-7-13 via TBMB)
Table 24b
  F (Kivar/KiWT): 39
